# Measurements reported in PMC11576293, “New series of 4,6-diaryl pyrimidines: facile synthesis and antiproliferative activity as dual EGFR/VEGFR-2 inhibitors” (Frontiers in Chemistry, 2024).
# What was measured:
# Assay type in all cases: cell-based
# 786-0 = assay: NCI-60 single-dose screen; conditions: Homo sapiens, single dose 10 µM, '-' = no inhibition, read-out: % Growth Inhibition
# Procedure, shortened: (§1)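 Single concentration (10 μM) per compound, assayed by the NCI DTP against its 60-line panel covering leukemia, lung, colon, CNS, melanoma, ovarian, renal, prostate and breast cancers.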
# A549/ATCC = assay: NCI-60 single-dose screen; conditions: Homo sapiens, single dose 10 µM, '-' = no inhibition, read-out: % Growth Inhibition
# Procedure, shortened: as §1
# ACHN 1 = assay: NCI-60 single-dose screen; conditions: Homo sapiens, single dose 10 µM, '-' = no inhibition, read-out: % Growth Inhibition
# Procedure, shortened: as §1
# BT-549 = assay: NCI-60 single-dose screen; conditions: Homo sapiens, single dose 10 µM, '-' = no inhibition, read-out: % Growth Inhibition
# Procedure, shortened: as §1
# CAKI-1 = assay: NCI-60 single-dose screen; conditions: Homo sapiens, single dose 10 µM, '-' = no inhibition, read-out: % Growth Inhibition
# Procedure, shortened: as §1
# COLO 205 = assay: NCI-60 single-dose screen; conditions: Homo sapiens, single dose 10 µM, '-' = no inhibition, read-out: % Growth Inhibition
# Procedure, shortened: as §1
# DU-145 = assay: NCI-60 single-dose screen; conditions: Homo sapiens, single dose 10 µM, '-' = no inhibition, read-out: % Growth Inhibition
# Procedure, shortened: as §1
# HCC-2998 = assay: NCI-60 single-dose screen; conditions: Homo sapiens, single dose 10 µM, '-' = no inhibition, read-out: % Growth Inhibition
# Procedure, shortened: as §1
# HCT-116 = assay: NCI-60 single-dose screen; conditions: Homo sapiens, single dose 10 µM, '-' = no inhibition, read-out: % Growth Inhibition
# Procedure, shortened: as §1
# HL-60(TB) = assay: NCI-60 single-dose screen; conditions: Homo sapiens, single dose 10 µM, '-' = no inhibition, read-out: % Growth Inhibition
# HOP-92 = assay: NCI-60 single-dose screen; conditions: Homo sapiens, single dose 10 µM, '-' = no inhibition, read-out: % Growth Inhibition
# Procedure, shortened: as §1
# HS 578T = assay: NCI-60 single-dose screen; conditions: Homo sapiens, single dose 10 µM, '-' = no inhibition, read-out: % Growth Inhibition
# Procedure, shortened: as §1
# HT29 = assay: NCI-60 single-dose screen; conditions: Homo sapiens, HT-29, single dose 10 µM, '-' = no inhibition, read-out: % Growth Inhibition
# Procedure, shortened: as §1
# IGROV1 = assay: NCI-60 single-dose screen; conditions: Homo sapiens, IGROV-1, single dose 10 µM, '-' = no inhibition, read-out: % Growth Inhibition
# Procedure, shortened: as §1
# K-562 = assay: NCI-60 single-dose screen; conditions: Homo sapiens, K562, single dose 10 µM, '-' = no inhibition, read-out: % Growth Inhibition
# Procedure, shortened: as §1
# MDA-MB-468 = assay: NCI-60 single-dose screen; conditions: Homo sapiens, single dose 10 µM, '-' = no inhibition, read-out: % Growth Inhibition
# Procedure, shortened: as §1
# MDA-MB231/ATCC = assay: NCI-60 single-dose screen; conditions: Homo sapiens, MDA-MB-231, single dose 10 µM, '-' = no inhibition, read-out: % Growth Inhibition
# Procedure, shortened: as §1
# NCI-H23 = assay: NCI-60 single-dose screen; conditions: Homo sapiens, single dose 10 µM, '-' = no inhibition, read-out: % Growth Inhibition
# Procedure, shortened: as §1
# NCI-H322M = assay: NCI-60 single-dose screen; conditions: Homo sapiens, single dose 10 µM, '-' = no inhibition, read-out: % Growth Inhibition
# Procedure, shortened: as §1
# NCI-H460 = assay: NCI-60 single-dose screen; conditions: Homo sapiens, single dose 10 µM, '-' = no inhibition, read-out: % Growth Inhibition
# Procedure, shortened: as §1
# NCI-H522 = assay: NCI-60 single-dose screen; conditions: Homo sapiens, single dose 10 µM, '-' = no inhibition, read-out: % Growth Inhibition
# Procedure, shortened: as §1
# NCI/ADR-RES = assay: NCI-60 single-dose screen; conditions: Homo sapiens, single dose 10 µM, '-' = no inhibition, read-out: % Growth Inhibition
# Procedure, shortened: as §1
# OVCAR-3 = assay: NCI-60 single-dose screen; conditions: Homo sapiens, single dose 10 µM, '-' = no inhibition, read-out: % Growth Inhibition
# Procedure, shortened: as §1
# OVCAR-4 = assay: NCI-60 single-dose screen; conditions: Homo sapiens, single dose 10 µM, '-' = no inhibition, read-out: % Growth Inhibition
# Procedure, shortened: as §1
# OVCAR-5 = assay: NCI-60 single-dose screen; conditions: Homo sapiens, single dose 10 µM, '-' = no inhibition, read-out: % Growth Inhibition
# Procedure, shortened: as §1
# OVCAR-8 = assay: NCI-60 single-dose screen; conditions: Homo sapiens, single dose 10 µM, '-' = no inhibition, read-out: % Growth Inhibition
# Procedure, shortened: as §1
# PC-3 = assay: NCI-60 single-dose screen; conditions: Homo sapiens, single dose 10 µM, '-' = no inhibition, read-out: % Growth Inhibition
# Procedure, shortened: as §1
# RPMI-8226 = assay: NCI-60 single-dose screen; conditions: Homo sapiens, single dose 10 µM, '-' = no inhibition, read-out: % Growth Inhibition
# Procedure, shortened: as §1
# RXF 393 = assay: NCI-60 single-dose screen; conditions: Homo sapiens, single dose 10 µM, '-' = no inhibition, read-out: % Growth Inhibition
# Procedure, shortened: as §1
# SF-268 = assay: NCI-60 single-dose screen; conditions: Homo sapiens, single dose 10 µM, '-' = no inhibition, read-out: % Growth Inhibition
# Procedure, shortened: as §1
# SF-539 = assay: NCI-60 single-dose screen; conditions: Homo sapiens, single dose 10 µM, '-' = no inhibition, read-out: % Growth Inhibition
# Procedure, shortened: as §1
# SK-MEL-28 = assay: NCI-60 single-dose screen; conditions: Homo sapiens, single dose 10 µM, '-' = no inhibition, read-out: % Growth Inhibition
# Procedure, shortened: as §1
# SK-MEL-2 = assay: NCI-60 single-dose screen; conditions: Homo sapiens, single dose 10 µM, '-' = no inhibition, read-out: % Growth Inhibition
# Procedure, shortened: as §1
# SK-MEL-5 = assay: NCI-60 single-dose screen; conditions: Homo sapiens, single dose 10 µM, '-' = no inhibition, read-out: % Growth Inhibition
# Procedure, shortened: as §1
# SK-OV-3 = assay: NCI-60 single-dose screen; conditions: Homo sapiens, single dose 10 µM, '-' = no inhibition, read-out: % Growth Inhibition
# Procedure, shortened: as §1
# SN12C = assay: NCI-60 single-dose screen; conditions: Homo sapiens, single dose 10 µM, '-' = no inhibition, read-out: % Growth Inhibition
# Procedure, shortened: as §1
# SNB-19 = assay: NCI-60 single-dose screen; conditions: Homo sapiens, single dose 10 µM, '-' = no inhibition, read-out: % Growth Inhibition
# Procedure, shortened: as §1
# SR = assay: NCI-60 single-dose screen; conditions: Homo sapiens, single dose 10 µM, '-' = no inhibition, read-out: % Growth Inhibition
# Procedure, shortened: as §1
# TK-10 = assay: NCI-60 single-dose screen; conditions: Homo sapiens, single dose 10 µM, '-' = no inhibition, read-out: % Growth Inhibition
# Procedure, shortened: as §1
# U251 = assay: NCI-60 single-dose screen; conditions: Homo sapiens, U-251, single dose 10 µM, '-' = no inhibition, read-out: % Growth Inhibition
# Procedure, shortened: as §1
# UACC-257 = assay: NCI-60 single-dose screen; conditions: Homo sapiens, single dose 10 µM, '-' = no inhibition, read-out: % Growth Inhibition
# Procedure, shortened: as §1
# UACC-62 = assay: NCI-60 single-dose screen; conditions: Homo sapiens, single dose 10 µM, '-' = no inhibition, read-out: % Growth Inhibition
# Procedure, shortened: as §1
# UO-31 = assay: NCI-60 single-dose screen; conditions: Homo sapiens, single dose 10 µM, '-' = no inhibition, read-out: % Growth Inhibition
# Procedure, shortened: as §1
# [1] = test system: four cancer cell lines (A-549, MCF-7, Panc-1, HT-29); assay: Antiproliferative assay, average over four cancer cell lines; conditions: Homo sapiens; average of the four cancer cell lines; read-out: Average IC50 (GI50)
# Source text: Table 2 presents the four cancer cell lines’ median inhibitory concentration (IC50) and GI50 (average IC50) values.
# The IC50 values were derived from dose-response tests. The reported data are derived from at least two independent studies, each comprising three replicates per concentration. See Supplementary Material A1 for more details.
smiles,measurement,setting,value
"CCCSc1nc(-c2ccc(Cl)cc2)cc(-c2ccc(OC)c(OC)c2)n1 [Compound 25, 4-(4-Chlorophenyl)-6-(3,4-dimethoxyphenyl)-2-(propylthio)pyrimidine]",inhibition at 10 µM,786-0,< 0%
same,inhibition at 10 µM,A549/ATCC,17.3%
same,inhibition at 10 µM,ACHN 1,7.82%
same,inhibition at 10 µM,BT-549,< 0%
same,inhibition at 10 µM,CAKI-1,13.5%
same,inhibition at 10 µM,COLO 205,31.7%
same,inhibition at 10 µM,DU-145,17.6%
same,inhibition at 10 µM,HCC-2998,4.26%
same,inhibition at 10 µM,HCT-116,< 0%
same,inhibition at 10 µM,HL-60(TB),15.5%
same,inhibition at 10 µM,HOP-92,< 0%
same,inhibition at 10 µM,HS 578T,< 0%
same,inhibition at 10 µM,HT29,14.7%
same,inhibition at 10 µM,IGROV1,< 0%
same,inhibition at 10 µM,K-562,27.1%
same,inhibition at 10 µM,MDA-MB-468,< 0%
same,inhibition at 10 µM,MDA-MB231/ATCC,16.2%
same,inhibition at 10 µM,NCI-H23,2.74%
same,inhibition at 10 µM,NCI-H322M,4.54%
same,inhibition at 10 µM,NCI-H460,< 0%
same,inhibition at 10 µM,NCI-H522,8%
same,inhibition at 10 µM,NCI/ADR-RES,11.2%
same,inhibition at 10 µM,OVCAR-3,< 0%
same,inhibition at 10 µM,OVCAR-4,20.2%
same,inhibition at 10 µM,OVCAR-5,4.78%
same,inhibition at 10 µM,OVCAR-8,6.34%
same,inhibition at 10 µM,PC-3,6.31%
same,inhibition at 10 µM,RPMI-8226,10.8%
same,inhibition at 10 µM,RXF 393,8.5%
same,inhibition at 10 µM,SF-268,6.85%
same,inhibition at 10 µM,SF-539,1.28%
same,inhibition at 10 µM,SK-MEL-28,17.4%
same,inhibition at 10 µM,SK-MEL-2,14.9%
same,inhibition at 10 µM,SK-MEL-5,0.38%
same,inhibition at 10 µM,SK-OV-3,2.94%
same,inhibition at 10 µM,SN12C,< 0%
same,inhibition at 10 µM,SNB-19,< 0%
same,inhibition at 10 µM,SR,24.9%
same,inhibition at 10 µM,TK-10,11.6%
same,inhibition at 10 µM,U251,7.53%
same,inhibition at 10 µM,UACC-257,24.8%
same,inhibition at 10 µM,UACC-62,3.23%
same,inhibition at 10 µM,UO-31,8.18%
same,IC50,[1],33 nM
"COc1ccc(-c2cc(-c3ccc(Cl)cc3)nc(SC(C)C)n2)cc1OC [Compound 26, 4-(4-Chlorophenyl)-2-(isopropylthio)-6-(3,4-dimethoxyphenyl)pyrimidine]",inhibition at 10 µM,786-0,< 0%
same,inhibition at 10 µM,A549/ATCC,0.02%
same,inhibition at 10 µM,ACHN 1,< 0%
same,inhibition at 10 µM,BT-549,< 0%
same,inhibition at 10 µM,CAKI-1,9.22%
same,inhibition at 10 µM,COLO 205,< 0%
same,inhibition at 10 µM,DU-145,< 0%
same,inhibition at 10 µM,HCC-2998,< 0%
same,inhibition at 10 µM,HCT-116,2.84%
same,inhibition at 10 µM,HL-60(TB),14.5%
same,inhibition at 10 µM,HOP-92,< 0%
same,inhibition at 10 µM,HS 578T,< 0%
same,inhibition at 10 µM,HT29,13.1%
same,inhibition at 10 µM,IGROV1,< 0%
same,inhibition at 10 µM,K-562,6.67%
same,inhibition at 10 µM,MDA-MB-468,7.33%
same,inhibition at 10 µM,MDA-MB231/ATCC,4.5%
same,inhibition at 10 µM,NCI-H23,< 0%
same,inhibition at 10 µM,NCI-H322M,1.11%
same,inhibition at 10 µM,NCI-H460,< 0%
same,inhibition at 10 µM,NCI-H522,9.05%
same,inhibition at 10 µM,NCI/ADR-RES,< 0%
same,inhibition at 10 µM,OVCAR-3,< 0%
same,inhibition at 10 µM,OVCAR-4,< 0%
same,inhibition at 10 µM,OVCAR-5,< 0%
same,inhibition at 10 µM,OVCAR-8,4.2%
same,inhibition at 10 µM,PC-3,< 0%
same,inhibition at 10 µM,RPMI-8226,0.53%
same,inhibition at 10 µM,RXF 393,< 0%
same,inhibition at 10 µM,SF-268,< 0%
same,inhibition at 10 µM,SF-539,< 0%
same,inhibition at 10 µM,SK-MEL-28,< 0%
same,inhibition at 10 µM,SK-MEL-2,< 0%
same,inhibition at 10 µM,SK-MEL-5,< 0%
same,inhibition at 10 µM,SK-OV-3,< 0%
same,inhibition at 10 µM,SN12C,8.05%
same,inhibition at 10 µM,SNB-19,3.77%
same,inhibition at 10 µM,SR,12.6%
same,inhibition at 10 µM,TK-10,< 0%
same,inhibition at 10 µM,U251,< 0%
same,inhibition at 10 µM,UACC-257,0.69%
same,inhibition at 10 µM,UACC-62,17.4%
same,inhibition at 10 µM,UO-31,15.2%
same,IC50,[1],41 nM
